Converted amounts (≈) assume the structure as drawn. The source made the active and inactive calls. No cut-off for these calls is given here.
Columns and labels:
[1] = test system: Chlamydia trachomatis; assay: Anti-chlamydial activity against Chlamydia trachomatis serovar L2 infected in human HEp-2 cells assessed as inhibition of chlamydial inclusion incubated for 16 hrs by Alexa488/DAPI staining based immunofluorescence assay; format: functional, organism-based; details: serovar L2, HEp-2, 16 h
[2] = biological target: T1, Ubiquitin carboxyl-terminal hydrolase 25 (Homo sapiens) (UniProt Q9UHP3); assay: Inhibition of human USP25 at 35 uM relative to control
T1 sequence (whole entry): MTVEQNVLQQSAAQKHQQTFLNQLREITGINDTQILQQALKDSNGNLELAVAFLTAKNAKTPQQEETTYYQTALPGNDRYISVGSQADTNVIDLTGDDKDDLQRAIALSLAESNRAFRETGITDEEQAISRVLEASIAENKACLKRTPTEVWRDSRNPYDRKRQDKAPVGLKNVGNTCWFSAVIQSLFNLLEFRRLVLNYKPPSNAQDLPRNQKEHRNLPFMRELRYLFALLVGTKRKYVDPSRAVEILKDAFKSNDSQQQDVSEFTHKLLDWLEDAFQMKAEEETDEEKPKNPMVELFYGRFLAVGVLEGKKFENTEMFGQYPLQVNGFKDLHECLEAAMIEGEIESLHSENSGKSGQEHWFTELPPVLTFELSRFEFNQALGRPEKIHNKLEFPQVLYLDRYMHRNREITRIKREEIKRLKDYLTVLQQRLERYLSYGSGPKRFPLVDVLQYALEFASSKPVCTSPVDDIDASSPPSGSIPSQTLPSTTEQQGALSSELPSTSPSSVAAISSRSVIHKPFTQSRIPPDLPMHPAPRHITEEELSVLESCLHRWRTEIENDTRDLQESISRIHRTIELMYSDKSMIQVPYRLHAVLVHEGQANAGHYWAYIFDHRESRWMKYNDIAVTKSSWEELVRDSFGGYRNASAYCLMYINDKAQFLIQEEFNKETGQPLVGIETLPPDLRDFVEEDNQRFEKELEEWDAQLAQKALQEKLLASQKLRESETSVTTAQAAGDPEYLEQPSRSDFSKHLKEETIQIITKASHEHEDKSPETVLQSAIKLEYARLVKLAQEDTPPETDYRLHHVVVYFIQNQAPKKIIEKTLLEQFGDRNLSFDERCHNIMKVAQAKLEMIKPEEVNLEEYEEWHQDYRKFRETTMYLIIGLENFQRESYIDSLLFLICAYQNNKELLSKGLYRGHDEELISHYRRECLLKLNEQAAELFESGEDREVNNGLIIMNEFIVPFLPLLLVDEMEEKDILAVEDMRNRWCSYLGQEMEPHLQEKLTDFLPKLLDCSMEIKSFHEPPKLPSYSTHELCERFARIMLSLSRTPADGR

[3] = Cytotoxicity against HDFa cells assessed as reduction in cell viability at 16 ug/mL measured after 20 hrs by XTT assay; format: toxicity, cell-based; details: human, dose 16 µg/ml
[4] = test system: HeLa; assay: Cytotoxicity against human HeLa cells assessed as cell viability at 4 to 256 ug/mL measured after 20 hrs by XTT assay; format: toxicity, cell-based; details: dose 4-256 µg/ml
[5] = test system: Staphylococcus aureus; assay: Antimicrobial activity against methicillin- resistant Staphylococcus aureus JE2 upto 256 microg/ml incubated for 20 hrs by resazurin staining based microtiter plate reader analysis; format: functional, organism-based; details: dose <= 256.0 µg/ml
[6] = biological target: T2, Ubiquitin thioesterase OTUB2 (Homo sapiens) (UniProt Q96DC9); assay: Inhibition of human OTUB2 at 35 uM relative to control
T2 sequence (whole entry): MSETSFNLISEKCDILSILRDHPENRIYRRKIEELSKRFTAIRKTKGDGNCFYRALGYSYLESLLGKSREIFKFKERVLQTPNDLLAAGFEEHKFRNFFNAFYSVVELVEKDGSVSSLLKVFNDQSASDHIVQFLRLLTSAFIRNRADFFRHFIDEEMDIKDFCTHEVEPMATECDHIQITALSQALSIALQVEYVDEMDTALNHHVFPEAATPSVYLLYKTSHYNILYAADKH

[7] = biological target: T3, Deubiquitinase and deneddylase Dub1 (Chlamydia trachomatis serovar L2 (strain ATCC VR-902B / DSM 19102 /434/Bu)) (UniProt B0B9A0); assay: Inhibition of recombinant Chlamydia trachomatis DUB1 (130 to 401 residues) using Ub-Rh110Gly as fluorogenic substrate at 100 to 500 uM incubated for 20 to 240 mins by enzymatic analysis relative to control; details: dose 100-500 µM, time 20-240 min
T3 sequence (whole entry): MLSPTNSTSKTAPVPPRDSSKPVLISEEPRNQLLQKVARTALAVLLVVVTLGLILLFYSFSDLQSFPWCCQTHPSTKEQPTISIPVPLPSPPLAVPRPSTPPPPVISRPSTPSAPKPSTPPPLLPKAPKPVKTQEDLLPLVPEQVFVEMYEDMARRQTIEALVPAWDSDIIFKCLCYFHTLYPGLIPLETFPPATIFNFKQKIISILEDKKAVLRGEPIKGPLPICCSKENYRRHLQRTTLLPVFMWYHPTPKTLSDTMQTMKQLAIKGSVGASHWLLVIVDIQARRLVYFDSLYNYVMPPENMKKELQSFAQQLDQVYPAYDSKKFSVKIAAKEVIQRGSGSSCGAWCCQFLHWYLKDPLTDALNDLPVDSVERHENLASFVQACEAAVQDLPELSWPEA

[8] = biological target: Ubiquitin carboxyl-terminal hydrolase isozyme L1 (Homo sapiens) (UniProt P09936); assay: Inhibition of human UCHL1 at 35 uM relative to control
[9] = biological target: T4, OTU domain-containing protein 3 (Homo sapiens) (UniProt Q5T2D3); assay: Inhibition of human OTUD3 at 35 uM relative to control
T4 sequence (whole entry): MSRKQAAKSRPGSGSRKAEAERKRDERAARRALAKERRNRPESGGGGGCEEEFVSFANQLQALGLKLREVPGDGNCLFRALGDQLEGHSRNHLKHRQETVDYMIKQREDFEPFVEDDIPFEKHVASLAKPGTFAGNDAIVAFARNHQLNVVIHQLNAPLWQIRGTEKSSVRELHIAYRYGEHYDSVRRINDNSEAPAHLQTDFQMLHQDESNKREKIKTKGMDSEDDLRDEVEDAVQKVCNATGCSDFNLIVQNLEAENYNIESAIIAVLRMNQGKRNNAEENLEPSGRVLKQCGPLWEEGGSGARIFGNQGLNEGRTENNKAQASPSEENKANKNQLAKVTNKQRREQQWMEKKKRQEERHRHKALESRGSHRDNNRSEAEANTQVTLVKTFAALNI

Chain of Ubiquitin carboxyl-terminal hydrolase isozyme L1 (Homo sapiens) (P09936 whole entry, looked up, the tested form may be a part): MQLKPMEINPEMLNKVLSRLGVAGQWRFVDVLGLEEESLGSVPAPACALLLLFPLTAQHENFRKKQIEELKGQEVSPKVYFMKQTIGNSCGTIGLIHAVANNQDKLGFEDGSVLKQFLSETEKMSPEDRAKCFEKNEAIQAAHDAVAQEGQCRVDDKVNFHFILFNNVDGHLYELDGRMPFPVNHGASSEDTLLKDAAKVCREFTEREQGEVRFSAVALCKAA

With `N#Cc1nccc(C(=O)NCc2nn(C(=O)Cc3ccccc3)c3ccccc23)n1` the IC50 [1] was 25.6 µg/mL (≈ 64.6 µM), the inhibition [2] was under 25% and the Activity [3] was “Toxic”. The Activity [4] was “Non-toxic”, the Activity [5] was “inactive” and the inhibition [6] was under 25%. For the same compound, the inhibition [7] was “Active; Partial Inhibition Observed”, the inhibition [8] was under 25% and the inhibition [9] was under 25%.

Reference: ChEMBL document CHEMBL6103628, “Structural Optimization of Covalent Inhibitors for Deubiquitinase ChlaDUB1 of Chlamydia trachomatis as Antibiotic Agents” (J Med Chem, 2025)
